Experimental data as given in publication PMC2988971 (Journal of medicinal chemistry, 2010).
Where a name gives a salt, the structure may show the parent alone. Read-outs that look alike come from different tables or passages of the source. Each block holds one molecule with its values, some of them ahead of it.

Tests used:
MDA-MB-435 cells [1] = assay: Sulforhodamine B; format: cell-based
Bovine brain tubulin = Bovine brain tubulin (Bos taurus, UniProt P81947+Q6B856); assay: Quantitative inhibition of tubulin assembly; format: biochemical
[2] = molecular target: tubulin (colchicine site) (Bos taurus, UniProt P81947+Q6B856); assay: Inhibition of [3H]colchicine binding to tubulin; parameters: species or system bovine; conditions: read-out: Inhibition of colchicine binding % Inhibition ± SD
A-10 cells = assay: Effects on cellular microtubules; format: cell-based; conditions: for Effect on interphase microtubules: 18 h, cell-based phenotypic screen, Fig. 3
HL-60(TB) = assay: NCI 60 cell line panel tumor cell growth inhibition; format: cell-based; conditions: Homo sapiens
SK-OV-3 = assay: SRB antiproliferative assay, parental line of Pgp isogenic pair; format: cell-based; conditions: Homo sapiens, SK-OV-3, read-out: IC50 (SD) SK-OV-3
SK-OV-3 MDR-1-6/6 = assay: SRB antiproliferative assay, Pgp overexpressing; format: cell-based; conditions: Homo sapiens, SK-OV-3, read-out: IC50 (SD) SK-OV-3 MDR-1-6/6
HeLa = assay: SRB antiproliferative assay, parental line of βIII-tubulin isogenic pair; format: cell-based; conditions: Homo sapiens, read-out: IC50 (SD) HeLa
WT βIII = assay: SRB antiproliferative assay, βIII-tubulin expressing line; format: cell-based; conditions: for Rr (relative resistance), effect of βIII-tubulin on drug sensitivity: IC50 of the WT βIII cell line divided by IC50 of the parental HeLa cells
[3] = test system: purified bovine brain tubulin; assay: In vitro tubulin polymerization; format: biochemical; conditions: initial study, Fig. 5; 10% glycerol, 3 mg/mL purified tubulin, 10 mM GTP
MDA-MB-435 cells [4] = assay: Cell cycle analysis by flow cytometry; format: cell-based; conditions: MDA-MB-435, 24 h, 850 nM 1, 45 nM (±)-3•HCl
K-562 = assay: NCI 60 cell line panel tumor cell growth inhibition; conditions: Homo sapiens, K562
SR = assay: as above; conditions: Homo sapiens
NCI-H522 = assay: as above; conditions: Homo sapiens
HCT-15 = assay: as above; conditions: Homo sapiens
KM12 = assay: as above; conditions: Homo sapiens
SW-620 = assay: as above; conditions: Homo sapiens
SF-295 = assay: as above; conditions: Homo sapiens
SNB-75 = assay: as above; conditions: Homo sapiens
MDA-MB-435 = assay: as above; conditions: Homo sapiens
SK-MEL-28 = assay: as above; conditions: Homo sapiens
SK-MEL-5 = assay: as above; conditions: Homo sapiens
UACC-62 = assay: as above; conditions: Homo sapiens
OVCAR-3 = assay: as above; conditions: Homo sapiens
NCI/ADR-RES = assay: as above; conditions: Homo sapiens
A498 = assay: as above; conditions: Homo sapiens
RXF 393 = assay: as above; conditions: Homo sapiens
MCF7 = assay: as above; conditions: Homo sapiens
HS 578T = assay: as above; conditions: Homo sapiens
MDA-MB-468 = assay: as above; conditions: Homo sapiens
60 cancer cell lines = assay: NCI 60 tumor cell line panel, summary over the panel
[5] = Homo sapiens, MDA-MB-435, read-out: IC50±SD (MDA-MB-435)

Sequence of tubulin (colchicine site) (Q6B856 whole entry): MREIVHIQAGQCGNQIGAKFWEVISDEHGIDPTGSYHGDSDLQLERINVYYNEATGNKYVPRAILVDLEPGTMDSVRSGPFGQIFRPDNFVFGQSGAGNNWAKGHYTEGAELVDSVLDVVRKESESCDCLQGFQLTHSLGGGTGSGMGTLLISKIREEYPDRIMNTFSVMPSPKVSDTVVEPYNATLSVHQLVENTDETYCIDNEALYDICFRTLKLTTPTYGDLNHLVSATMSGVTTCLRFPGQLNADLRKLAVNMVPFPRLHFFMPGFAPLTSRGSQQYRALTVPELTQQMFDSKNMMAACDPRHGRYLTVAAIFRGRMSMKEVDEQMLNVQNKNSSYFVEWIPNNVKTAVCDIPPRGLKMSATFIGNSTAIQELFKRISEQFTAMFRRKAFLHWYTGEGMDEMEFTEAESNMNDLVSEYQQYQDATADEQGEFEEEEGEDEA
Sequence of tubulin (colchicine site) (P81947 whole entry): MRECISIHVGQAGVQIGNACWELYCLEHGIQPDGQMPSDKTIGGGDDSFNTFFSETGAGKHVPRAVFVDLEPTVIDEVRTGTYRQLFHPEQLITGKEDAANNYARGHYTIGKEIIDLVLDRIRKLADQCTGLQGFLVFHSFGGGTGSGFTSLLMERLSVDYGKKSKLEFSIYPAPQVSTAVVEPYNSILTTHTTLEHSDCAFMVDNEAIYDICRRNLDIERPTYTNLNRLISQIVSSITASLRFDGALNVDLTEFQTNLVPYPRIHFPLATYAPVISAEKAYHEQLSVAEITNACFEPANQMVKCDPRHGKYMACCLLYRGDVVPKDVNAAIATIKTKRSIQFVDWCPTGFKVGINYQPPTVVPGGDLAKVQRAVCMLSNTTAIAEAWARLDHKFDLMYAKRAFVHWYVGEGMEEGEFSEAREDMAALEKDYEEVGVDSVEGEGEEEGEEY
Sequence of Bovine brain tubulin (Q6B856 whole entry): as the sequence (Q6B856 whole entry) above
Sequence of Bovine brain tubulin (P81947 whole entry): as the sequence (P81947 whole entry) above

IC50 (MDA-MB-435 cells [1]; [5]): 153 ± 11.1 nM
Molecule: COc1cccc(N(C)c2nc(C)nc3c2CC(C)C3)c1.Cl (racemic) [(±)-5•HCl, N-(3-Methoxyphenyl)-N,2,6-trimethyl-6,7-dihydro-5H-cyclopenta[d]pyrimidin-4-aminium chloride]
fold less potent than (±)-3•HCl (MDA-MB-435 cells [1]; comparison of 3′-OCH3 with 4′-OCH3 analog, Table 2): about 9 fold

Molecule: COc1ccc(/C=C\c2cc(OC)c(OC)c(OC)c2)cc1OP(=O)(O)O [CA4P, combretastatin A-4 phosphate, reference compound]
IC50 (Bovine brain tubulin): 1000 ± 90 nM
inhibition at 1 µM [2]: 88 ± 2%
inhibition at 5 µM [2]: 99 ± 0.2%

Molecule: COc1ccccc1N(C)c1nc(C)nc2c1CC(C)C2.Cl (racemic) [(±)-6•HCl, N-(2-Methoxyphenyl)-N,2,6-trimethyl-6,7-dihydro-5H-cyclopenta[d]pyrimidin-4-aminium chloride]
Activity (A-10 cells; Table 2 data, 2′-OCH3 analog): inactive

Molecule: COc1ccc(N(C)c2nc(C)nc3c2CC(C)C3)cc1.Cl (racemic) [(±)-3•HCl, N-(4-Methoxyphenyl)-N,2,6-trimethyl-6,7-dihydro-5H-cyclopenta[d]pyrimidin-4-aminium chloride]
GI50 (HL-60(TB)): < 10 nM
IC50 (MDA-MB-435 cells [1]; [5]): 17 ± 0.7 nM
Effect on interphase microtubules (A-10 cells; A-10 cells): dramatic reorganization of the interphase microtubule network
IC50 (SK-OV-3): 38.6 ± 3.1 nM
IC50 (SK-OV-3 MDR-1-6/6): 44.4 ± 3.2 nM
IC50 (HeLa): 37.3 ± 4.1 nM
Rr (relative resistance), effect of βIII-tubulin on drug sensitivity (WT βIII): 0.6–0.7
Rr (relative resistance), effect of βIII-tubulin on drug sensitivity (WT βIII; listed as (±)-3•HCI): 0.6
IC50 (WT βIII; read-out: IC50 (SD) WT βIII): 23.9 ± 1.7 nM
IC50 (Bovine brain tubulin): 1900 ± 10 nM
inhibition at 1 µM [2]: 60 ± 2%
inhibition at 5 µM [2]: 84 ± 3%
Effect on polymerization of purified tubulin [3]: potent inhibitors of purified tubulin assembly
Cell cycle effect (MDA-MB-435 cells [4]): mitotic accumulation
GI50 (K-562): < 10 nM
GI50 (SR): < 10 nM
GI50 (NCI-H522): < 10 nM
GI50 (HCT-15): < 10 nM
GI50 (KM12): < 10 nM
GI50 (SW-620): < 10 nM
GI50 (SF-295): < 10 nM
GI50 (SNB-75): < 10 nM
GI50 (MDA-MB-435): < 10 nM
GI50 (SK-MEL-28): < 10 nM
GI50 (SK-MEL-5): < 10 nM
GI50 (UACC-62): < 10 nM
GI50 (OVCAR-3): < 10 nM
GI50 (NCI/ADR-RES): < 10 nM
GI50 (A498): < 10 nM
GI50 (RXF 393): < 10 nM
GI50 (MCF7): < 10 nM
GI50 (HS 578T): < 10 nM
GI50 (MDA-MB-468): < 10 nM
GI50 (60 cancer cell lines): < 30 nM

IC50 (Bovine brain tubulin): 2600 ± 50 nM
Molecule: COc1ccc(N(C)c2nc(C)nc3[nH]ccc23)cc1 [Compound 1, N-(4-Methoxyphenyl)-N,2-dimethyl-7H-pyrrolo[2,3-d]pyrimidin-4-amine]
Effect on interphase microtubules (A-10 cells; A-10 cells): dramatic reorganization of the interphase microtubule network
Rr (relative resistance), effect of βIII-tubulin on drug sensitivity (WT βIII): 0.6–0.7
Effect on polymerization of purified tubulin [3]: potent inhibitors of purified tubulin assembly
Cell cycle effect (MDA-MB-435 cells [4]): mitotic accumulation
GI50 (60 cancer cell lines): < 500 nM

Molecule: N-(4-Methoxyphenyl)-2,6-dimethyl-6,7-dihydro-5H-cyclopenta[d]pyrimidin-4-amine [(±)-4]
IC50 (MDA-MB-435 cells [1]; read-out: IC50±SD (MDA-MB-435), inhibition of proliferation, SRB assay): > 10000 nM
EC50 (A-10 cells; read-out: EC50 for microtubule depolymerization, concentration required to cause 50% loss of cellular microtubules, A-10 cells): > 40000 nM

IC50 (MDA-MB-435 cells [1]; [5]): 2700 ± 300 nM
Molecule: Cc1nc2c(c(N(C)c3ccccc3)n1)CC(C)C2 (racemic) [(±)-7•HCl, N-Phenyl-N,2,6-trimethyl-6,7-dihydro-5H-cyclopenta[d]pyrimidin-4-aminium chloride]
